# Data taken from patent publication US12138341B1 (Technical Institute of Physics and Chemistry, CAS, priority 2023, dated 2024).
# Assay: In vivo pharmacokinetics experiment of CBD microneedle in a rat
# Parameters: species or system SD rat
# Conditions: gavage group (oral administration), FIG. 7
structure (smiles),measurement,value
"C=C(C)[C@@H]1CCC(C)=C[C@H]1c1c(O)cc(CCCCC)cc1O [CBD, cannabidiol]",time drug concentration in plasma is maintained,2 days
